We go through seven compounds from patent US12606556B2, “TYK-2 inhibitor” (BEIGENE, LTD., priority 2020, dated 2026).

Assay [1] has as its target T1, TYK2-JH2 (aa 575-869, in-house) protein (Homo sapiens, UniProt P29597).
T1 construct: TYK2-JH2 (aa 575-869, in-house) protein; made in house
Briefly: TYK2-JH2 biochemical assay (HTRF, blocking of TYK2-JH2 protein with its probe). It is filed as binding. As to conditions: for IC50: HTRF, 0.2 nM recombinant TYK2-JH2, Probe 1; for Biochemical assay Selectivity fold (TYK2/JAK1): TYK2-JH2 vs JAK1-JH2 biochemical IC50. Here is the method: Assay A: TYK2-JH2 Biochemical Assay
Compounds disclosed herein were tested for blocking of TYK2-JH2 (aa 575-869, in-house) protein with its probe in an assay based on Homogeneous Time Resolved Fluorescence.
Compound dilution is done according to the following protocol: (1) Prepare 500× compounds solution in DMSO from 500 uM by 5-fold dilution, total 10 doses were included; (2) Prepare 10× compounds solution in an assay buffer containing 20 mM HEPES, pH 7.5, 10 mM MgCl2, 0.005% BSA, 2 mM DTT, 0.015% Brij-35 by transferring 1 μl serial 500× stock solution into 49 μl assay buffer. 4 μl of 0.2 nM recombinant TYK2-JH2 protein was pre-incubated with 1 μl of 10×serial dilution of compounds at room temperature for 0.5 hour. Then 5 μl of 10 nM in-house Probe 1 (6-((3,5-dimethylphenyl)amino)-8-((4,26-dioxo-30-((3aS,4S,6aR)-2-oxohexahydro-1H-thieno[3,4-d]imidazol-4-yl)-7,10,13,16,19,22-hexaoxa-3,25-diazatriacontyl)amino)imidazo[1,2-b]pyridazine-3-carboxamide, KD=10 nM), 5 μl Mab Anti-6His Tb cryptate Gold (Cat: 61HI2TLB, Cisbio Bioassays) and Streptavidin-XL665(Cat: 610SAXLB, Cisobio Bioassays) mixture were added to plate and further incubated at room temperature for 1 hour. The HTRF signals (ex337 nm, em620 nm/665 nm) were read on BMG PHERAstar FS instrument. The inhibition percentage of TYK2 interaction with its probe in presence of increasing concentrations of compounds was calculated based on the ratio of fluorescence at […]. The IC50 for each compound was derived from fitting the data to the four-parameter logistic equation by Dotmatics.
A general note: TR-FRET usually uses a lanthanide donor and a delayed reading to cut background.

Assay [2] addresses T2, JAK1-JH2 protein (aa 561-860, in-house) (Homo sapiens, UniProt P23458).
T2 construct: JAK1-JH2 protein (aa 561-860, in-house); made in house
Briefly: JAK1-JH2 biochemical assay (HTRF, blocking of JAK1-JH2 protein with its probe). Format: binding. As to conditions: 1.17 nM recombinant JAK1-JH2, Probe 2. Here is the method: Assay B: JAK1-JH2 Biochemical Assay
Compounds disclosed herein were tested for blocking of JAK1-JH2 protein (aa 561-860, in-house) with its probe in an assay based on Homogeneous Time Resolved Fluorescence. Compound dilution is done according to the following protocol: (1) Prepare 500× compounds solution in DMSO from 500 uM by 5-fold dilution, total 10 doses were included; (2) Prepare 10× compounds solution in an assay buffer containing 20 mM HEPES, pH 7.5, 10 mM MgCl2, 0.005% BSA, 2 mM DTT, 0.015% Brij-35 by transferring 1 μl serial 500× stock solution into 49 μl assay buffer. 4 μL of 1.17 nM recombinant JAK1-JH2 protein was pre-incubated with 1 μl of 10×serial dilution of compounds at room temperature for 0.5 hour. […] The HTRF signals (ex337 nm, em620 nm/665 nm) were read on BMG PHERAstar FS instrument. The inhibition percentage of JAK1 interaction with its probe in presence of increasing concentrations of compounds was calculated based on the ratio of fluorescence at 615 nm to that at 665 nm. The IC50 for each compound was derived from fitting the data to the four-parameter logistic equation by Dotmatics.

The subject of assay [3] is JAK2, TYK2/p-STAT4 (Tyr693) activated by IL-12 in NK-92 cell line. Briefly: IL-12-JAK2, TYK2/p-STAT4 (Tyr693) inhibition cellular assay. Format: cell-based. The settings on record: for IC50: NK92, 0.5 h, NK-92 cells, IL-12 40 ng/ml, 30 min, read-out: Cellular assay pSTAT4/IL-12 IC50; for Cellular assay Selectivity fold (TYK2/JAK1): pSTAT4/IL-12 vs pSTAT3/IL-6 cellular IC50. An excerpt: Assay C: IL-12-JAK2, TYK2/p-STAT4 (Tyr693) Inhibition IC50 Cellular Assay
To evaluate the inhibition effect of compounds disclosed herein on JAK2, TYK2/p-STAT4 (Tyr693) activated by IL-12 in NK-92 cell line, NK-92 cells were collected and washed 3 times by DPBS and resuspended in MEM-α(GIBCO,Cat #12561056) with 10% FBS (Gibco, Cat #10099, Lot #1891605), without IL-2 (R&D systems,Cat #202-IL), starved overnight. Cells were collected and resuspended in 1640 medium (phenol red free, Gibco, Cat #11835-030) with 0.1% BSA, and 12.5 μl/5×10^4/well cell suspension were seeded to the 96-well plate (Corning, Cat #3799). Then cells were treated with compounds diluted in 0.2% DMSO 1640 medium, at 37° C., 1 h. Dilution is done according to the following protocol: (1) make 500× compounds solution in DMSO from 5 mM by 4-fold dilution, total 8 doses were included; (3) make 2× compounds solution in assay medium by transferring 0.5 μl serial 500× stock solution into 125 μl assay medium; (4) 15 μl of 2× serial solution is added to cells and incubate at 37° C. for 1 h, the final compound conc. is 10000,2500,625,156.25,39,9.8,2.4 and 0.61 nM, respectively. After 1 h, cells were treated with 2.5 μl medium containing IL-12 at 37° C. (R&D systems, Cat #219-IL-005, final conc.40 ng/ml), 30 min. Following cells were lysed with 7.5 μl lysis buffer at RT, shaking on shaker for 1 h. 10 μL of cell lysate were transferred to a PE 384-well Proxiplate detection plate, and 5 μL of pre-mixed Alphascreen beads were added to each well. Covered the plate with a plate sealer, span 1000 rpm for 1 min, mix, Incubated overnight at room temperature. Read on BMG PheraStar with Alphascreen protocol. IC 50 values were calculated by fitting dependent data to the four-parameter logistic model using dotmatics software. The assay was performed by using AlphaLISA SureFire Ultra p-STAT4 (Tyr693) Assay Kit—High Volume (PE, Cat #ALSU-PST4-A-HV).

The test system of assay [4] is JAK1/p-STAT3(Tyr705) activated by IL-6 in TF-1 cell line. Briefly: IL-6-JAK1/p-STAT3(Tyr705) inhibition cellular assay. It is filed as cell-based. As to conditions: Homo sapiens, 0.5 h; TF-1 cells, IL-6 50 ng/ml, 30 min; read-out: Cellular assay pSTAT3/IL-6 IC50. An excerpt:
Assay D: IL-6-JAK1/p-STAT3(Tyr705) Inhibition IC50 Cellular Assay
To evaluate the inhibition effect of compounds disclosed herein on JAK1/p-STAT3(Tyr705) activated by IL-6 in TF-1 cell line, TF-1 cells were collected and washed 3 times by DPBS and resuspended in RPMI-1640 (phenol red free, Gibco, Cat #11835-030) with 0.1% FBS (Gibco, Cat #10099, Lot #1891605), without GM-CSF(R&D systems,Cat #215-GM-050), starved overnight. Cells were collected and resuspended in 1640 medium (phenol red free, Gibco, Cat #11835-030) with 0.1% BSA, and 12.5 μl/10×10^4/well cell suspension were seeded to the 96-well plate (Corning, Cat #3799). Then cells were treated with compounds diluted in 0.2% DMSO 1640 medium, at 37° C., 1 h. Dilution is done according to the following protocol: (1) make 500× compounds solution in DMSO from 5 mM by 4-fold dilution, total 8 doses were included; (3) make 2× compounds solution in assay medium by transferring 0.5 μl serial 500× stock solution into 125 μl assay medium; (4) 15 μl of 2× solution is added to cells and incubate at 37° C. for 1 h, the final compound conc. is 10000,2500,625,156.25,39,9.8,2.4 and 0.61 nM, respectively. After 1 h, cells were treated with 2.5 μl medium containing IL-6 at 37° C. (R&D systems, Cat #206-IL-010, final conc.50 ng/ml), 30 min. Following cells were lysed with 10 μl lysis buffer at RT, shaking on shaker for 1 h. 16 μL of cell lysate were transferred to a PE 384-well HTRF detection plate, and 4 μL of pre-mixed HTRF antibodies were added to each well. Covered the plate with a plate sealer, span 1000 rpm for 1 min, mix, Incubated overnight at room temperature. Read on BMG PheraStar with HTRF protocol (337 nm-665 nm-620 nm). IC 50 values were calculated by fitting dependent data to the four-parameter logistic model using dotmatics software. The assay was performed by using HTRF Phospho-STAT3(Tyr705) Cellular Assay Kit (Cisbio, Cat #62AT3PEG).

T1 sequence (P29597 575-869): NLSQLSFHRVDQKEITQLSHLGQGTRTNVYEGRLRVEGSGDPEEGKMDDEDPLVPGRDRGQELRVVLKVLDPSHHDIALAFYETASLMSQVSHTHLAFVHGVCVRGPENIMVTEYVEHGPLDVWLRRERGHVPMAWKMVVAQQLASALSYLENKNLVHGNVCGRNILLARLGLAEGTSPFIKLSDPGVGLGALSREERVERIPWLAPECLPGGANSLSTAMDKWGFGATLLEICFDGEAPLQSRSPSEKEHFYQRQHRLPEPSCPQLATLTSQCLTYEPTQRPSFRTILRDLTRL
T2 sequence (P23458 561-860): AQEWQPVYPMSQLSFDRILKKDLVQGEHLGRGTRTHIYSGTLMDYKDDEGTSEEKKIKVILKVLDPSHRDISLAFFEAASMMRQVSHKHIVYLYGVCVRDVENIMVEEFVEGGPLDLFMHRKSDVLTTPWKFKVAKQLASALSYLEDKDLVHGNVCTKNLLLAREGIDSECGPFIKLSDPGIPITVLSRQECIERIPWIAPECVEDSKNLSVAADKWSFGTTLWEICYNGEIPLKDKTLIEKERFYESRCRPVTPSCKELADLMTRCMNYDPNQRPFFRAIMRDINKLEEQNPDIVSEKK

On to `[2H]C([2H])([2H])NC(=O)c1nnc(NC(=O)C2CC2)cc1Nc1nc2ccc(N3CCC3)cn2n1` [Example E3, 4-((6-(azetidin-1-yl)-[1,2,4]triazolo [1,5-a]pyridin-2-yl)amino)-6-(cyclopropanecarbox-amido)-N-(methyl-d3) pyridazine-3-carboxamide], for which the IC50 turned out to be 0.038 nM in assay [1], 1.3 nM in assay [2], 8.9 nM in assay [3] and 4060 nM in assay [4]. Besides, the “Biochemical assay Selectivity fold (TYK2/JAK1)” value in assay [1] worked out at 34 fold. Besides, the “Cellular assay Selectivity fold (TYK2/JAK1)” value in assay [3] is recorded as 453 fold.
For `CNC(=O)c1nnc(NC(=O)C2CC2)cc1Nc1nc2ccc(N3CC(CC(F)F)C3)cn2n1` [Example E4, 6-(cyclopropanecar-boxamido)-4-((6-(3-(2,2-difluoroethyl)azetidin-1-yl)-[1,2,4]triazolo[1,5-a]pyridin-2-yl)amino)-N-methylpyridazine-3-carboxamide], the IC50 in assay [1] was 0.044 nM; in assay [2], 1.5 nM; in assay [3] it was 10 nM; in assay [4], 5400 nM. In addition, in assay [1], the “Biochemical assay Selectivity fold (TYK2/JAK1)” value turned out to be 34 fold. In assay [3], the “Cellular assay Selectivity fold (TYK2/JAK1)” value is reported as 540 fold.
With `CNC(=O)c1nnc(NC(=O)C2CC2)cc1Nc1nc2ccc(N3CC(N(C)C)C3)cn2n1` [Example E5, 6-(cyclopropanecar-boxamido)-4-((6-(3-(dimethylamino)azetidin-1-yl)-[1,2,4]triazolo [1,5-a]pyridin-2-yl)amino)-N-methylpyridazine-3-carboxamide], the IC50 in assay [1] stood at 0.064 nM; in assay [2], 1.7 nM; in assay [3], 16 nM; in assay [4], 7270 nM. In addition, the “Biochemical assay Selectivity fold (TYK2/JAK1)” value in assay [1] was 26 fold. Moreover, the “Cellular assay Selectivity fold (TYK2/JAK1)” value in assay [3] was determined as 454 fold.
With `CNC(=O)c1nnc(NC(=O)C2CC2)cc1Nc1nc2ccc(N3CC(C)(N(C)C)C3)cn2n1` [Example E6], the IC50 in assay [1] stood at 0.056 nM; in assay [2], 0.56 nM; in assay [3], 15.4 nM; in assay [4], 1640 nM. In assay [1], the “Biochemical assay Selectivity fold (TYK2/JAK1)” value was 10 fold. Further, the “Cellular assay Selectivity fold (TYK2/JAK1)” value in assay [3] worked out at 106 fold.
`CNC(=O)c1nnc(NC(=O)C2CC2)cc1Nc1nc2ccc(N3CC(c4ncn(C)n4)C3)cn2n1` [Example E7, 6-(cyclopropanecar-boxamido)-N-methyl-4-((6-(3-(1-methyl-1H-1,2,4-triazol-3-yl)azetidin-1-yl)-[1,2,4]triazolo [1,5-a]pyridin-2-yl)amino)pyridazine-3-carboxamide]: the IC50 is 0.084 nM in assay [1], 0.78 nM in assay [2], 47.8 nM in assay [3] and greater than 10000 nM in assay [4]. For the same compound, the “Biochemical assay Selectivity fold (TYK2/JAK1)” value in assay [1] stood at 9 fold. Besides, in assay [3], the “Cellular assay Selectivity fold (TYK2/JAK1)” value is greater than 209 fold.
On to `CNC(=O)c1nnc(NC(=O)C2CC2)cc1Nc1nc2ccc(N3CC(C)(C)C3)cn2n1` [Example E8, 6-(cyclopropanecar-boxamido)-4-((6-(3,3-dimethylazetidin-1-yl)-[1,2,4]triazolo[1,5-a]pyridin-2-yl)amino)-N-methylpyridazine-3-carboxamide], for which the IC50 was 0.044 nM in assay [1], 3 nM in assay [2], 13.8 nM in assay [3] and greater than 10000 nM in assay [4]. The “Biochemical assay Selectivity fold (TYK2/JAK1)” value in assay [1] was determined as 68 fold. The “Cellular assay Selectivity fold (TYK2/JAK1)” value in assay [3] was greater than 724 fold.
With `CNC(=O)c1nnc(NC(=O)C2CC2)cc1Nc1nc2ccc(N3CC(F)C3)cn2n1` [Example E9, 6-(cyclopropanecar-boxamido)-4-((6-(3-fluoroazetidin-1-yl)-[1,2,4]triazolo[1,5-a]pyridin-2-yl)amino)-N-methylpyridazine-3-carboxamide], the IC50 in assay [1] was 0.097 nM; in assay [2], 2.4 nM; in assay [3], 19.6 nM; in assay [4] it was greater than 10000 nM. In addition, the “Biochemical assay Selectivity fold (TYK2/JAK1)” value in assay [1] is 25 fold. In addition, in assay [3], the “Cellular assay Selectivity fold (TYK2/JAK1)” value is reported as greater than 510 fold.
